Data as given in patent publication US9890185B2, “Urea derivatives useful as kinase inhibitors” (Respivert Limited, priority 2013, dated 2018).
Converted amounts (≈) assume the structure as drawn. Read-outs that look alike come from different tables or passages of the source.

How the values were obtained:
p38 MAPK β = p38 MAPK β (Homo sapiens (Human), UniProt Q15759); experiment: KINOMEscan enzyme binding assay (p38 MAPKβ); conditions: KINOMEscan technology; read-out: Dissociation Constant, p38 MAPK β
Sequence of p38 MAPK β (Q15759 whole entry): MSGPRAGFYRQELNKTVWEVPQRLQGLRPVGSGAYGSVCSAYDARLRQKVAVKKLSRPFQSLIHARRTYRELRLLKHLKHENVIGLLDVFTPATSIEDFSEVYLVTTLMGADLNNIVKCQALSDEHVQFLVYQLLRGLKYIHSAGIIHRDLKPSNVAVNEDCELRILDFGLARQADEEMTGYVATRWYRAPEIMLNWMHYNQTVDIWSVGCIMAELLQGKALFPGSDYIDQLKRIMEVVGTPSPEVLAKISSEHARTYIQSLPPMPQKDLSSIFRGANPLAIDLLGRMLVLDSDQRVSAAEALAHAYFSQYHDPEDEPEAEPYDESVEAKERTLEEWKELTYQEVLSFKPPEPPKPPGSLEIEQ
Procedure: Kinase enzyme binding activities of compounds disclosed herein may be determined using a proprietary assay which measures active site-directed competition binding to an immobilized ligand (Fabian, M. A. et al., Nature Biotechnol., 2005, 23:329-336). These assays may be conducted by DiscoverX (formerly Ambit; San Diego, Calif.). The percentage inhibition produced by incubation with a test compound may be calculated relative to the non-inhibited control.

[1] = tested on: endotoxin (LPS)-induced uveitis; experiment: Endotoxin-induced uveitis in rats (in vivo assay vi); set-up: species or system Lewis rats; conditions: for IL-1β Anterior tissue / IL-1β Posterior tissue: LPS-stimulated rats, topical to eye; for Cell counts: eyes of LPS-stimulated rats, topical
Procedure: Male, Lewis rats (6-8 weeks old, Charles River UK Limited) are housed in cages of 3 at 19-21° C. with a 12 h light/dark cycle (07:00/19:00) and fed a standard diet of rodent chow and water ad libitum. […] Untreated rats are injected with PBS. […] Before administration, the solution or suspension to be administered is agitated for 5 minutes to ensure a uniform suspension. 6 hours after LPS dosing, animals are euthanized by overdose with pentobarbitone (i.v.). Following euthanasia, the right eye of each animal is enucleated and dissected into front (anterior) and back (posterior) sections around the lens. Each section is weighed and homogenised in 500 μL of sterile phosphate buffered saline followed by 20 minutes centrifugation at 12000 rpm at 4° C. The resulting supernatant is divided into 3 aliquots and stored at −80° C. until subsequent cytokine analysis by R&D DuoSet ELISA.

[2] = Solubility in fasted-state simulated colonic fluid (FaSSCoF); assay type: physicochemical; conditions: thermodynamic from solid, pH 6.5, 25° C.; for solubility thermodynamic at 24 h: 25 °C, pH 6.5, fassgf or other biorelevant; for solubility at 24 h: fassgf or other biorelevant, read-out: Solubility in the FaSSCoF medium
Procedure: The solubilities of compounds of the invention in FaSSCoF at pH 6.5 are determined using a modification of a previously-reported procedure (Vertzoni, M., et al. Pharm. Res. 2010, 27, 2187-2196). In place of the bile salt extract employed in the original procedure (which extract is no longer available), the modified procedure uses a mixture of sodium taurochlorate (0.15 g), glycocholic acid (0.15 g), ursodeoxycholic acid (0.05 g), cholic acid (0.05 g), and glycodeoxycholic acid (0.05 g). These five bile acids are ground together with a mortar and pestle to produce a fine white powder that is incorporated into the FaSSCoF, as outlined below.
Tris(hydroxymethyl)aminomethane (Tris; 0.275 g) and maleic acid (0.44 g) are dissolved in water (35 mL) to give a solution whose pH is adjusted to 6.5 by treatment with 0.5M NaOH (ca. 12 mL). The solution is then made up to 50 mL with water. A portion of this Tris/maleate buffer solution (ca. 25 mL) is added to a 0.5 L round-bottomed flask, before being treated with 0.00565 g of the bile acid mixture described above. Solutions of phosphatidylcholine (0.0111 g) in DCM (0.15 mL) and palmitic acid (0.0013 g) in DCM (0.15 mL) are added, then the organic solvent is evaporated off under reduced pressure at 40° C. until a clear solution, with no perceptible DCM odour, is achieved. The volume of the evaporated solution is adjusted to 50 mL by addition of the remainder of Tris/maleate buffer, then BSA (0.115 g) is added, before being dissolved by gentle agitation.
Test compounds are suspended in the pH 6.5 FaSSCoF medium to give a maximum final concentration of ca. 6 mg/mL. The suspensions are equilibrated at 25° C. for 24 h, before being filtered through a glass fibre C filter. The filtrates are then diluted as appropriate for injection and quantification by HPLC with reference to a standard. Different volumes of the standard, diluted and undiluted sample solutions are injected and the solubilities are calculated using the peak areas determined by integration of the peak found at the same retention time as the principal peak in the standard injection.

[3] = Run 1, read-out: pH 6.5 FaSSCoF Solubility Run 1
[4] = Run 2, read-out: pH 6.5 FaSSCoF Solubility Run 2

Row | Kd (p38 MAPK β) | solubility thermodynamic at 24 h [2, 3] | solubility thermodynamic at 24 h [2, 4] | solubility at 24 h [2] | Compound | also measured
1 | 57 nM | – | – | – | COc1c(NC(=O)Nc2ccc(Oc3ccnc(Nc4ccccc4)c3)c3ccccc23)cc(C(C)(C)C)cc1[S+](C)[O-] (racemic) [Example 12, 1-(5-(tert-Butyl)-2-methoxy-3-(methylsulfinyl)phenyl)-3-(4-((2-(phenylamino)pyridin-4-yl)oxy)naphthalen-1-yl)urea] | –
2 | 340 nM | – | – | – | COCCOCCOCCOc1cc(Nc2cc(Oc3ccc(NC(=O)Nc4cc(C(C)(C)C)cc(S(C)(=O)=O)c4OC)c4ccccc34)ccn2)cc(OC)c1 [Example 9, 1-(5-(tert-Butyl)-2-methoxy-3-(methylsulfonyl)phenyl)-3-(4-((2-((3-methoxy-5-(2-(2-(2-methoxyethoxy)ethoxy)ethoxy)phenyl)amino)pyridin-4-yl)oxy)naphthalen-1-yl)urea] | –
3 | – | – | – | – | COc1cc(Nc2cc(Oc3ccc(NC(=O)Nc4cc(C(C)(C)C)cc(P(C)(C)=O)c4OC)c4ccccc34)ccn2)cc(C(N)=O)c1 [Example 37, 3-((4-((4-(3-(5-(tert-butyl)-3-(dimethylphosphoryl)-2-methoxyphenyl)ureido)-naphthalen-1-yl)oxy)pyridin-2-yl)amino)-5-methoxybenzamide] | IL-1β Anterior tissue ([1]; 0.1 mg/mL): 480.1 ± 113.7 pg/mL; IL-1β Posterior tissue ([1]; 0.1 mg/mL): 319.6 ± 64.8 pg/mL; IL-1β Anterior tissue ([1]; 1 mg/mL): 330.4 ± 94.2 pg/mL; IL-1β Posterior tissue ([1]; 1 mg/mL): 285.8 ± 96.4 pg/mL; Cell counts ([1]; 0.1 mg/mL): 39.1 ± 7.1; Cell counts ([1]; 1 mg/mL): 32.6 ± 9.5; Cytokine levels in anterior and posterior segments of the eyes ([1]; rats treated with intravitreal endotoxin LPS): significantly reduced
4 | – | 10.7 µg/mL (≈ 13.7 µM) | 11.2 µg/mL (≈ 14.3 µM) | > 10 µg/mL | COc1cc(Nc2cc(Oc3ccc(NC(=O)Nc4cc(C(C)(C)C)cc([S+](C)[O-])c4OC)c4ccccc34)ccn2)ccc1C(=O)NCCN1CCOCC1 (stereo not drawn) [Example 72, 4-((4-((4-(3-(5-(tert-Butyl)-2-methoxy-3-(methylsulfinyl)phenyl)ureido)naphthalen-1-yl)oxy)pyridin-2-yl)amino)-2-methoxy-N-(2-morpholinoethyl)benzamide] | –
5 | – | 15.2 µg/mL (≈ 19.5 µM) | 16.6 µg/mL (≈ 21.3 µM) | > 10 µg/mL | COc1cc(Nc2cc(Oc3ccc(NC(=O)Nc4cc(C(C)(C)C)cc(CC(N)=O)c4OC)c4ccccc34)ccn2)ccc1C(=O)NCC(CO)(CO)CO [Example 73, 4-((4-((4-(3-(3-(2-Amino-2-oxoethyl)-5-(tert-butyl)-2-methoxyphenyl)ureido)naphthalen-1-yl)oxy)pyridin-2-yl)amino)-N-(3-hydroxy-2,2-bis(hydroxymethyl)propyl)-2-methoxybenzamide] | –
6 | – | 12.3 µg/mL (≈ 14.2 µM) | 13 µg/mL (≈ 15 µM) | > 10 µg/mL | COCCOCCOCCNC(=O)c1cc(Nc2cc(Oc3ccc(NC(=O)Nc4cc(C(C)(C)C)cc(CNC(=O)CN(C)C)c4OC)c4ccccc34)ccn2)cc(OC)c1 [Example 77, 3-((4-((4-(3-(5-(tert-Butyl)-3-((2-(dimethylamino)acetamido)methyl)-2-methoxyphenyl)ureido)naphthalen-1-yl)oxy)pyridin-2-yl)amino)-5-methoxy-N-(2-(2-(2-methoxyethoxy)ethoxy)ethyl)benzamide] | –
